Results as given in patent publication US7012083B2, “Compounds useful in therapy” (Pfizer Inc., priority 1999, dated 2006).

Tested on: hind leg scratching behaviour induced by 5-methoxytryptamine hydrochloride
Experiment: Inhibition of hind leg scratching behaviour induced in rats by a pruritogenic agent
Type: in vivo, Male Wistar rats
Conditions: rat, pruritogen 5-methoxytryptamine hydrochloride 4 mg/3 mL/kg s.c.; test compound s.c. in aqueous micelle formulation; scratching score over 25 minutes
Method: The compounds of the invention are evaluated for their activity as antipruritic agents by measuring their ability to inhibit the hind leg scratching behaviour induced in rats by the administration of a known pruritogenic agent. These studies are based on the procedure described by Berendsen and Broekkamp in the European Journal of Pharmacology, 1991, 194, 201. The test is performed as follows: • Male Wistar rats (approximately 150 g body weight) are challenged with a pruritogen by subcutaneous injection of 5-methoxytryptamine hydrochloride (4 mg/3 mL/kg) dissolved in physiological saline into the scruff of the neck. At this dose a constant and quantifiable hindleg scratching response lasting up to 90 minutes is obtained. • The test compound is administered to the test animals by subcutaneous injection in an aqueous micelle formulation. The test compound is prepared in the following manner. […] The compounds can be administered pre- or post-challenge or may be administered at the same time as the pruritogenic challenge. • After the pruritogen challenge has been administered, hindleg scratching is scored for each animal by recording the presence or absence of scratching during each 30 second interval as 1 or 0 scored respectively. […]

CCCCCCN1CC[C@@](C)(c2cccc(OC(=O)NC)c2)[C@H](C)C1 (racemic) [Example 2, (±)-3-(1-Hexyl-trans-3,4-dimethyl-4-piperidinyl)phenyl methylcarbamate]
anti-pruritic activity: found to display anti-pruritic activity
